Data reported in patent US20240285551A1, “A SMALL MOLECULE TNF-a INHIBITOR AND PREPARATION METHOD AND USE THEREOF” (FUDAN UNIVERSITY, priority 2021, published 2024).

Key:
Type in all cases: in vivo
[1] = system: IL-6; assay: colon tissue IL-6 mRNA by qPCR, DSS acute UC mice; conditions: 10 mg/kg
Description: (§1) Except for the normal group, all other groups of mice were allowed to freely drink a 3% DSS solution which was freshly prepared and replaced the next day (wherein the 3% DSS solution was prepared by weighing 3 g of a DSS powder (from MP Biomedicals, USA with a molecular weight of 36,000 to 50,000) and fully dissolving it in 100 mL of the drinking water for the mice); whereas the normal group was given blank drinking water; the control group mice drank water normally for 7 days, while the DSS group mice drank the 3% DSS solution freely for 7 days and were administrated for 6 days from the second day DSS was given. The mice were administered by gavage once a day with a volume of 10 mL/kg, wherein the normal control group and DSS group were gavaged with a solvent of 0.5% CMC-Na (wherein a 0.5% CMC-Na solution is at a concentration of 0.5 g/100 mL, the same below), while the other groups were separately gavaged with drugs dissolved in 0.5% CMC-Na.
(§2) After dissection, a segment of the colon was taken from the same part of each mouse, total RNAs were extracted from tissues, and mRNA expressions of such inflammatory factors as TNF-α, IL-1β, IL-6, and IL-23 in colon tissues of the mice were detected through qPCR.

[2] = system: IL-23; assay: colon tissue IL-23 mRNA by qPCR, DSS acute UC mice; conditions: 10 mg/kg
Description: as §1, §2

[3] = system: IL-1β; assay: serum IL-1β protein by ELISA, DSS acute UC mice; conditions: 10 mg/kg
Description: as §1

[4] = system: TNF-α; assay: colon tissue TNF-α mRNA by qPCR, DSS acute UC mice; conditions: 10 mg/kg
Description: as §1, §2

[5] = system: IL-6; assay: serum IL-6 protein by ELISA, DSS acute UC mice; conditions: 10 mg/kg
Description: as §1
(§3) To investigate the effects of compounds (R)-STU104, (S)-STU104, and (±)-STU104 on the secretion of such inflammatory factors as TNF-α, IL-1β, IL-6, and IL-23 by mice of the DSS induced acute ulcerative colitis model in C57 mice, we isolated serum after blood acquisition and detected the contents of such inflammatory factors as TNF-α, IL-1β, IL-6, and IL-23 in the serum of mice using ELISA.

[6] = system: DSS induced acute ulcerative colitis model in C57 mice; assay: DSS induced acute ulcerative colitis in C57 mice (body weight, DAI, colon length, H&E pathology)
Description: as §1
The normal control group mice were vivacious with glossy fur, stable weight gain, and normal stools appearing elliptical or spindle shaped.
In order to further evaluate the disease development for each group of acute UC mice, we performed DAI scoring on the loose and bloody stools etc. for each mouse (see panel B1 in FIG. 3). […] As the experiment progressed, the disease became gradually worsened, with some animals experiencing severe bloody stools and significant emaciation.
(§4) After dissection, the colon of each mouse was taken and the length of the colon was measured separately.

[7] = system: IL-1β; assay: colon tissue IL-1β mRNA by qPCR, DSS acute UC mice; conditions: 10 mg/kg
Description: as §1, §2

[8] = system: IL-23; assay: serum IL-23 protein by ELISA, DSS acute UC mice; conditions: 10 mg/kg
Description: as §1, §3

[9] = system: TNF-α; assay: serum TNF-α protein by ELISA, DSS acute UC mice; conditions: 10 mg/kg
Description: as §1, §3

[10] = system: chronic ulcerative colitis model in IL-10 whole gene knockout mice; assay: chronic ulcerative colitis in IL-10 whole gene knockout mice (survival, body weight, colon length, H&E pathology); conditions: positive drug group, dose not given
Description: Ten C57 mice (aged 10-12 weeks, around 20 g) with an identified genotype of Wildtype were taken as the normal control group. […] The mice were administered by gavage once a day with a volume of 10 mL/kg, wherein the normal control group and DSS group were gavaged with a solvent of 0.5% CMC-Na while the other groups were separately gavaged with drugs dissolved in 0.5% CMC-Na.
as §4

| SMILES | inhibition ratio of IL-6 mRNA in colon tissues [1] | inhibition ratio of IL-23 mRNA in colon tissues [2] | inhibition ratio of IL-1β protein content in serum [3] | inhibition ratio of TNF-α mRNA in colon tissues [4] | inhibition ratio of IL-6 protein content in serum [5] | improvement of acute UC symptoms ([6]; 10 mg/kg, compared with mesalazine 50 mg/kg) | colon length recovery rate (inhibition of colon shortening) ([6]; 10 mg/kg, gavage once a day) | recovery rate of colon pathological sections (H&E) ([6]; 10 mg/kg, gavage once a day) | inhibition ratio of IL-1β mRNA in colon tissues [7] | inhibition ratio of IL-23 protein content in serum [8] | inhibition ratio of TNF-α protein content in serum [9] | colon length recovery rate (inhibition of colon shortening) ([6]; 50 mg/kg, gavage once a day) | recovery rate of colon pathological sections (H&E) ([6]; 50 mg/kg, gavage once a day) | body weight recovery rate ([6]; 50 mg/kg, gavage once a day, day 7) | recovery rate of colon pathological sections (H&E) [10] | total mortality rate [10] |
| --- | --- | --- | --- | --- | --- | --- | --- | --- | --- | --- | --- | --- | --- | --- | --- | --- |
| COc1ccc([C@@H]2CC(=O)c3cc(OC)cc(OC)c32)cc1 [(S)-STU104] | 8.1% | 10.6% | 18.1% | 22.0% | 32.6% | significantly lower than that in the mesalazine group | 14.5% | 13.9% | 27.7% | 18.9% | 10.2% | – | – | – | – | – |
| Nc1ccc(O)c(C(=O)O)c1 [mesalazine, reference compound] | – | – | – | – | – | – | – | – | – | – | – | 26.4% | 38.0% | 7% | 44.3% | no deaths occurred |
